Test results taken from ChEMBL document CHEMBL5154693, “N-Methylpropargylamine-Conjugated Hydroxamic Acids as Dual Inhibitors of Monoamine Oxidase A and Histone Deacetylase for Glioma Treatment” (J Med Chem, 2022).
Activity calls are given as the source filed them. The rule behind the calls is not given here.

How the values were obtained:
[1] = system: U-251; assay: Cytotoxicity against human U251 cells assessed as inhibition of cell growth incubated for 48 hrs by MTT assay; assay type: functional, cell-based; details: DDE = dose-dependent effect
[2] = molecular target: T1, Protein deacetylase HDAC6 (Homo sapiens, UniProt Q9UBN7); assay: Inhibition of human HDAC6 (379 to 382 residues) using RHKKAc fluorogenic peptide as substrate by fluorescence assay
T1 sequence (Q9UBN7 whole entry): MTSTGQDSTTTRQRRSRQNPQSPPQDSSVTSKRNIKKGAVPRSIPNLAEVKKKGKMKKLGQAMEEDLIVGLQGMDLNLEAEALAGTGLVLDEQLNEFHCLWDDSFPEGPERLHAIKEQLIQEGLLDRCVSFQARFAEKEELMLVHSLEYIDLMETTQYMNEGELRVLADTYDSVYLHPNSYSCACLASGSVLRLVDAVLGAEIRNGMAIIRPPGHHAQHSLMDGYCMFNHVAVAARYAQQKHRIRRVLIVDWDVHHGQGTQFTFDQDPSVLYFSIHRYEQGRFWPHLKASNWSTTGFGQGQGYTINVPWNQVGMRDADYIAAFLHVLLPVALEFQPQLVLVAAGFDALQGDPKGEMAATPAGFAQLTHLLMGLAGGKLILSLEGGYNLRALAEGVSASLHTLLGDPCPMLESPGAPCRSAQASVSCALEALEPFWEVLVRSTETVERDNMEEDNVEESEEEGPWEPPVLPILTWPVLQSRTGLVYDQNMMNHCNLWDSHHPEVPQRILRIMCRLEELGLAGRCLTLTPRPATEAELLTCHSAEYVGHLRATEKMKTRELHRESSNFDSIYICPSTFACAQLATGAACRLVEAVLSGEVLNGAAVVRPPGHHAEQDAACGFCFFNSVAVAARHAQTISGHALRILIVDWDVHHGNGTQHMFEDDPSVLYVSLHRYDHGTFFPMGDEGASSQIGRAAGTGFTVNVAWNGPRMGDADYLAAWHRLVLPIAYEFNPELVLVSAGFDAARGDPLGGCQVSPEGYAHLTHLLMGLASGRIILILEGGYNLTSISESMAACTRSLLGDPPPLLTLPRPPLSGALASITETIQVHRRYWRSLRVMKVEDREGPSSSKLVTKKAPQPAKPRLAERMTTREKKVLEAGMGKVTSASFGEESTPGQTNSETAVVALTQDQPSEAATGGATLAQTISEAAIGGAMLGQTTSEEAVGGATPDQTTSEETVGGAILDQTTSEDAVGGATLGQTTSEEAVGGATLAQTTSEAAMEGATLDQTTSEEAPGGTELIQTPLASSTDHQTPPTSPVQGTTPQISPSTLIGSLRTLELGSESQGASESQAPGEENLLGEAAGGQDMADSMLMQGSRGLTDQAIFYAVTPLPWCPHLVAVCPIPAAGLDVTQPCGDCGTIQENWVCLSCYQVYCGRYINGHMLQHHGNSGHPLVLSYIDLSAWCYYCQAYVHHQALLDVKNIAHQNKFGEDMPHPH

[3] = system: U-251; assay: cells; assay type: functional, cell-based; details: Homo sapiens, U-251, 48 h
Description: Cytotoxicity against human TMZ-resistant U251 cells assessed as inhibition of cell growth incubated for 48 hrs by MTT assay

[4] = system: GL26; assay: Inhibition of HDAC in mouse GL26 cells assessed as increase in histone H3 acetylation at 0.62 to 1.25 uM incubated for 48 hrs by Western blot analysis; assay type: cell-based; details: dose 0.62-1.25 µM, DDE = dose-dependent effect
[5] = system: GL26; assay: Inhibition of HDAC in mouse GL26 cells assessed as increase in alpha tubulin level at 0.62 to 1.25 uM incubated for 48 hrs by Western blot analysis; assay type: cell-based; details: dose 0.62-1.25 µM, DDE = dose-dependent effect
[6] = system: GL26; assay: Induction of apoptosis in mouse GL26 cells assessed as proteolytic cleavage of PARP1 incubated for 48 hrs by Western blot analysis; assay type: functional, cell-based; details: dose 1.25-5 µM, DDE = dose-dependent effect
[7] = system: Mus musculus; assay: In vivo inhibition of MAO-A in C57BL6 mouse xenografted with mouse GL26 cells as decrease in MAO activity in brain at 50 mg/kg, ip by radiometric analysis; assay type: functional, organism-based
[8] = system: Mus musculus; assay: In vivo inhibition of MAO-A in mouse xenografted with mouse GL26 assessed as decrease in MAO activity in brain at 25 mg/kg, ip administered for 10 days by bioluminescence assay; assay type: functional, organism-based; details: time 10.0 day
[9] = Toxicity in mouse bearing intracranial tumor assessed as median survival time at 50 mg/kg, ip for 10 days (Rvb= 13.8 days); assay type: organism-based; details: in vivo, 240 h, time 10 day
[10] = Toxicity in mouse bearing intracranial tumor assessed as last day of survival at 25 mg/kg, ip treatment started at 7 dpi (Rvb=19 days); assay type: organism-based; details: in vivo, 456 h
[11] = molecular target: Lysine-specific histone demethylase 1A (Homo sapiens, UniProt O60341); assay: Inhibition of human LSD1 assessed as demethylase activity of LSD1 using Histone H3(1-21)K4me2 peptide as substrate incubated for 30 mins followed by substrate addition by amplex red dye based HRP-coupled assay
[12] = Toxicity in mouse bearing intracranial tumor assessed as median survival time at 25 mg/kg, ip for 10 days (Rvb= 13.8 days); assay type: organism-based; details: in vivo, 240 h, time 10 day
[13] = Toxicity in mouse bearing intracranial tumor assessed as last day of survival at 25 mg/kg,ip for 10 days (Rvb=16 days); assay type: organism-based; details: in vivo, 240 h, time 10 day

| SMILES | Activity [1] | IC50 [2] [nM] | IC50 [3] [nM] | Activity [4] | Activity [5] | Activity [6] | Activity [7] | Activity [8] | Survival [9] [days] | Survival [10] [days] | EC50 [11] [nM] | Survival [12] [days] | Survival [13] [days] |
| --- | --- | --- | --- | --- | --- | --- | --- | --- | --- | --- | --- | --- | --- |
| C#CCN(C)CCCOc1ccc(NC(=O)CCCCCCC(=O)NO)cc1Cl | Dde | 6 | 2730 | Dde | Dde | Dde | Active | Active | 14.4 | 20 |  |  |  |
| C#CCN(C)CCCOc1cc(NCc2ccc(/C=C/C(=O)NO)cc2)ccc1Cl | Dde | 100 | 990 |  |  |  | Active | Active |  | 22 | 10000 | 16.4 | 21 |
